# Patent US20190192699A1, “NUCLEAR IMAGING AND RADIOTHERAPEUTICS AGENTS TARGETING CARBONIC ANHYDRASE IX AND USES THEREOF” (THE JOHNS HOPKINS UNIVERSITY, priority 2016, published 2019)
# Values joined by “and” are separate entries in the source; they are usually repeats but may differ in a detail not shown here. Equal values may be shown once. “Also recorded” adds a separate entry of the source.
# Tests used:
# SK-RC-52 xenografts = assay: Biodistribution of [64Cu]XYIMSR-06; format: in vivo, mice
# Description: (§1) Cell Lines and Mouse Models. Animal experiments were performed in accordance with protocols approved by the Johns Hopkins Animal Care and Use Committee (ACUC). Six-week-old female NOD/SCID mice were purchased from the Animal Resource Core of the Sidney Kimmel Comprehensive Cancer Center of Johns Hopkins and were subcutaneously injected in the lower left flank or upper right flank with 1×10^6 SK-RC-52 cells in RPMI 1640 GlutaMAX™ media (Life Technologies, Frederick, Md.) supplemented with 1% fetal bovine serum (FBS). Mice were monitored for tumor size and used for SPECT/CT imaging when the size of the tumor reached 100 mm^3.
# Biodistribution of [^64Cu]XYIMSR-06. Mice bearing SK-RC-52 xenografts within the upper right flank were injected intravenously with 740 kBq (20 μCi) of [^64Cu]XYIMSR-06 in 200 μL of PBS. For in vivo competition (binding specificity) studies, tumor-bearing mice were injected with 740 kBq (20 μCi) of [^64Cu]XYIMSR-06 and 200 nmole of 1 in 200 μL of PBS concurrently. At specific times after injection (1 h, 4 h, 8 h and 24 h), mice (n=5) were sacrificed by cervical dislocation with blood immediately collected by cardiac puncture. Heart, lungs, pancreas, spleen, fat, brain, muscle, small intestines, liver, stomach, kidney, urinary bladder, and tumor were also collected. Each organ was weighed and the tissue radioactivity was measured with an automated gamma counter (1282 Compugamma CS, Pharmacia/LKBNuclear, Inc., Mt. Waverly, Vic. Australia). The percentage of injected dose per gram of tissue (% ID/g) was calculated by comparison with samples of a standard dilution of the initial dose. All measurements were corrected for radioactive decay. Data were expressed as mean±standard deviation (SD). Prism software (GraphPAD, San Diego, Calif.) was used to determine statistical significance. Statistical significance was calculated using a paired t test. P-values […] were considered significant.
# [1] = test system: CAIX-expressing SK-RC-52 tumors; assay: PET/CT imaging of [64Cu]XYIMSR-06; format: in vivo, mice; settings: 22.2 MBq (600 μCi) via tail vein
# Description: as §1
# PET/CT imaging of [^64Cu]XYIMSR-06. Mice harboring subcutaneous SK-RC-52 tumors within the upper right flank were injected intravenously (tail vein) with 22.2 MBq (600 μCi) of [^64Cu]XYIMSR-06 in 250 μL of PBS (pH=7.0). Anesthesia was then induced with 3% isoflurane and maintained with 2% isoflurane. Physiologic temperature was maintained with an external light source while the mouse was on the gantry. Whole body, 2-bed PET/CT imaging was performed using the SuperArgus small animal PET/CT scanner (Sedecal, Madrid, Spain), […] a 250-700 keV energy window. PET acquisition times were: 5 min/bed position (1 h post-injection of [^64Cu]XYIMSR-06); 10 min/bed position (4 and 8 h) and 20 min/bed position (24 h). […]
# [2] = 8 h + block (200 nmole of 1 co-injected)
# [3] = 24 h + block (200 nmole of 1 co-injected)
compound,measurement,setting,value
CC(CCC(=O)N[C@@H](CC(=O)N[C@@H](CC(=O)N[C@@H](CCCCn1cc(CCCC(=O)Nc2nnc(S(N)(=O)=O)s2)nn1)C(=O)NCCOCCOCCNC(=S)Nc1ccc(CC2CN(CC(=O)[O-])CCN(CC(=O)[O-])CCN2CC(=O)O)cc1)C(=O)O)C(=O)O)(c1ccc(O)cc1)c1ccc(O)cc1.[64Cu+2] (stereo partly shown) [[^64Cu]XYIMSR-06],Biodistribution: Bladder,SK-RC-52 xenografts; 1 h post-injection,11.12 ± 6.33 % ID/g
same,Biodistribution: Blood,SK-RC-52 xenografts; 1 h post-injection,0.66 ± 0.05 % ID/g
same,Biodistribution: Brain,SK-RC-52 xenografts; 1 h post-injection,1.46 ± 2.23 % ID/g
same,Biodistribution: Fat,SK-RC-52 xenografts; 1 h post-injection,0.80 ± 0.17 % ID/g
same,Biodistribution: Heart,SK-RC-52 xenografts; 1 h post-injection,3.41 ± 0.79 % ID/g
same,Biodistribution: Kidney (kid),SK-RC-52 xenografts; 1 h post-injection,33.65 ± 3.91 % ID/g
same,Biodistribution: Liver,SK-RC-52 xenografts; 1 h post-injection,3.25 ± 0.97 % ID/g
same,Biodistribution: Lung,SK-RC-52 xenografts; 1 h post-injection,25.52 ± 3.35 % ID/g
same,Biodistribution: Muscle (mm),SK-RC-52 xenografts; 1 h post-injection,1.28 ± 0.27 % ID/g
same,Biodistribution: Pancreas,SK-RC-52 xenografts; 1 h post-injection,2.94 ± 0.24 % ID/g
same,Biodistribution: Sm. intestine,SK-RC-52 xenografts; 1 h post-injection,7.35 ± 0.78 % ID/g
same,Biodistribution: Spleen,SK-RC-52 xenografts; 1 h post-injection,0.36 ± 0.08 % ID/g
same,Biodistribution: Stomach,SK-RC-52 xenografts; 1 h post-injection,14.80 ± 2.27 % ID/g
same,Biodistribution: Tumor,SK-RC-52 xenografts; 1 h post-injection,14.5 % ID/g and 14.47 ± 2.69 % ID/g
same,Tumor/kid (kidney) ratio,SK-RC-52 xenografts; 1 h post-injection,0.4 ± 0.1
same,Tumor/mm (muscle) ratio,SK-RC-52 xenografts; 1 h post-injection,10.8 ± 3.7
same,Biodistribution: Bladder,SK-RC-52 xenografts; 4 h post-injection,17.05 ± 8.86 % ID/g
same,Biodistribution: Blood,SK-RC-52 xenografts; 4 h post-injection,0.33 ± 0.06 % ID/g
same,Biodistribution: Brain,SK-RC-52 xenografts; 4 h post-injection,0.29 ± 0.06 % ID/g
same,Biodistribution: Fat,SK-RC-52 xenografts; 4 h post-injection,0.52 ± 0.29 % ID/g
same,Biodistribution: Heart,SK-RC-52 xenografts; 4 h post-injection,1.78 ± 0.33 % ID/g
same,Biodistribution: Kidney (kid),SK-RC-52 xenografts; 4 h post-injection,19.99 ± 2.88 % ID/g
same,Biodistribution: Liver,SK-RC-52 xenografts; 4 h post-injection,2.18 ± 0.57 % ID/g
same,Biodistribution: Lung,SK-RC-52 xenografts; 4 h post-injection,12.03 ± 1.61 % ID/g
same,Biodistribution: Muscle (mm),SK-RC-52 xenografts; 4 h post-injection,0.70 ± 0.18 % ID/g
same,Biodistribution: Pancreas,SK-RC-52 xenografts; 4 h post-injection,1.36 ± 0.19 % ID/g
same,Biodistribution: Sm. intestine,SK-RC-52 xenografts; 4 h post-injection,4.15 ± 0.69 % ID/g
same,Biodistribution: Spleen,SK-RC-52 xenografts; 4 h post-injection,0.24 ± 0.04 % ID/g
same,Biodistribution: Stomach,SK-RC-52 xenografts; 4 h post-injection,8.19 ± 0.97 % ID/g
same,Biodistribution: Tumor,SK-RC-52 xenografts; 4 h post-injection,19.3 % ID/g and 19.31 ± 4.51 % ID/g
same,Tumor/Blood ratio,SK-RC-52 xenografts; 4 h post-injection,57.7 ± 9.3
same,Tumor/kid (kidney) ratio,SK-RC-52 xenografts; 4 h post-injection,1.0 ± 0.1
same,Tumor/mm (muscle) ratio,SK-RC-52 xenografts; 4 h post-injection,29.4 ± 9.9
same,Biodistribution: Bladder,SK-RC-52 xenografts; [2],1.45 ± 1.53 % ID/g
same,Biodistribution: Blood,SK-RC-52 xenografts; [2],0.08 ± 0.01 % ID/g
same,Biodistribution: Brain,SK-RC-52 xenografts; [2],0.04 ± 0.01 % ID/g
same,Biodistribution: Fat,SK-RC-52 xenografts; [2],0.05 ± 0.01 % ID/g
same,Biodistribution: Heart,SK-RC-52 xenografts; [2],0.16 ± 0.03 % ID/g
same,Biodistribution: Kidney (kid),SK-RC-52 xenografts; [2],1.82 ± 0.39 % ID/g
same,Biodistribution: Liver,SK-RC-52 xenografts; [2],0.55 ± 0.08 % ID/g
same,Biodistribution: Lung,SK-RC-52 xenografts; [2],0.77 ± 0.14 % ID/g
same,Biodistribution: Muscle (mm),SK-RC-52 xenografts; [2],0.05 ± 0.02 % ID/g
same,Biodistribution: Pancreas,SK-RC-52 xenografts; [2],0.14 ± 0.03 % ID/g
same,Biodistribution: Sm. intestine,SK-RC-52 xenografts; [2],0.38 ± 0.06 % ID/g
same,Biodistribution: Spleen,SK-RC-52 xenografts; [2],0.14 ± 0.02 % ID/g
same,Biodistribution: Stomach,SK-RC-52 xenografts; [2],0.69 ± 0.18 % ID/g
same,Biodistribution: Tumor,SK-RC-52 xenografts; [2],2.39 ± 0.24 % ID/g
same,Tumor/Blood ratio,SK-RC-52 xenografts; [2],32.0 ± 3.8
same,Tumor/kid (kidney) ratio,SK-RC-52 xenografts; [2],1.3 ± 10.2
same,Tumor/mm (muscle) ratio,SK-RC-52 xenografts; [2],53.0 ± 12.6
same,Biodistribution: Bladder,SK-RC-52 xenografts; 8 h post-injection,7.43 ± 7.72 % ID/g
same,Biodistribution: Blood,SK-RC-52 xenografts; 8 h post-injection,0.13 ± 0.02 % ID/g
same,Biodistribution: Brain,SK-RC-52 xenografts; 8 h post-injection,0.24 ± 0.06 % ID/g
same,Biodistribution: Fat,SK-RC-52 xenografts; 8 h post-injection,0.28 ± 0.27 % ID/g
same,Biodistribution: Heart,SK-RC-52 xenografts; 8 h post-injection,0.65 ± 0.10 % ID/g
same,Biodistribution: Kidney (kid),SK-RC-52 xenografts; 8 h post-injection,8.14 ± 1.15 % ID/g
same,Biodistribution: Liver,SK-RC-52 xenografts; 8 h post-injection,0.99 ± 0.22 % ID/g
same,Biodistribution: Lung,SK-RC-52 xenografts; 8 h post-injection,4.64 ± 0.58 % ID/g
same,Biodistribution: Muscle (mm),SK-RC-52 xenografts; 8 h post-injection,0.21 ± 0.05 % ID/g
same,Biodistribution: Pancreas,SK-RC-52 xenografts; 8 h post-injection,0.47 ± 0.21 % ID/g
same,Biodistribution: Sm. intestine,SK-RC-52 xenografts; 8 h post-injection,1.98 ± 0.14 % ID/g
same,Biodistribution: Spleen,SK-RC-52 xenografts; 8 h post-injection,0.18 ± 0.02 % ID/g
same,Biodistribution: Stomach,SK-RC-52 xenografts; 8 h post-injection,4.02 ± 0.53 % ID/g
same,Biodistribution: Tumor,SK-RC-52 xenografts; 8 h post-injection,16.74 ± 1.58 % ID/g
same,Tumor/Blood ratio,SK-RC-52 xenografts; 8 h post-injection,129.6±18.8
same,Tumor/kid (kidney) ratio,SK-RC-52 xenografts; 8 h post-injection,2.1±0.26
same,Tumor/mm (muscle) ratio,SK-RC-52 xenografts; 8 h post-injection,84.3±21.0
same,all other tumor-to-organ ratios tested,SK-RC-52 xenografts; 24 h,≥ 10.0
same,tumor-to-lung ratio,SK-RC-52 xenografts; 24 h,4.9
same,Biodistribution: Bladder,SK-RC-52 xenografts; [3],0.45 ± 0.50 % ID/g
same,Biodistribution: Blood,SK-RC-52 xenografts; [3],0.01 ± 0.08 % ID/g
same,Biodistribution: Brain,SK-RC-52 xenografts; [3],0.02 ± 0.01 % ID/g
same,Biodistribution: Fat,SK-RC-52 xenografts; [3],0.01 ± 0.01 % ID/g
same,Biodistribution: Heart,SK-RC-52 xenografts; [3],0.08 ± 0.01 % ID/g
same,Biodistribution: Kidney (kid),SK-RC-52 xenografts; [3],0.48 ± 0.09 % ID/g
same,Biodistribution: Liver,SK-RC-52 xenografts; [3],0.42 ± 0.04 % ID/g
same,Biodistribution: Lung,SK-RC-52 xenografts; [3],0.29 ± 0.05 % ID/g
same,Biodistribution: Muscle (mm),SK-RC-52 xenografts; [3],0.04 ± 0.06 % ID/g
same,Biodistribution: Pancreas,SK-RC-52 xenografts; [3],0.07 ± 0.02 % ID/g
same,Biodistribution: Sm. intestine,SK-RC-52 xenografts; [3],0.19 ± 0.05 % ID/g
same,Biodistribution: Spleen,SK-RC-52 xenografts; [3],0.11 ± 0.04 % ID/g
same,Biodistribution: Stomach,SK-RC-52 xenografts; [3],0.29 ± 0.04 % ID/g
same,Biodistribution: Tumor,SK-RC-52 xenografts; [3],1.20 ± 0.47 % ID/g
same,Tumor/Blood ratio,SK-RC-52 xenografts; [3],27.1 ± 26.7
same,Tumor/kid (kidney) ratio,SK-RC-52 xenografts; [3],2.4 ± 0.4
same,Tumor/mm (muscle) ratio,SK-RC-52 xenografts; [3],49.0 ± 28.7
same,Biodistribution: Bladder,SK-RC-52 xenografts; 24 h post-injection,0.34 ± 0.09 % ID/g
same,Biodistribution: Blood,SK-RC-52 xenografts; 24 h post-injection,0.00 ± 0.06 % ID/g
same,Biodistribution: Brain,SK-RC-52 xenografts; 24 h post-injection,0.13 ± 0.02 % ID/g
same,Biodistribution: Fat,SK-RC-52 xenografts; 24 h post-injection,0.03 ± 0.01 % ID/g
same,Biodistribution: Heart,SK-RC-52 xenografts; 24 h post-injection,0.12 ± 0.03 % ID/g
same,Biodistribution: Kidney (kid),SK-RC-52 xenografts; 24 h post-injection,0.90 ± 0.12 % ID/g
same,Biodistribution: Liver,SK-RC-52 xenografts; 24 h post-injection,0.38 ± 0.03 % ID/g
same,Biodistribution: Lung,SK-RC-52 xenografts; 24 h post-injection,1.27 ± 0.38 % ID/g
same,Biodistribution: Muscle (mm),SK-RC-52 xenografts; 24 h post-injection,0.02 ± 0.01 % ID/g
same,Biodistribution: Pancreas,SK-RC-52 xenografts; 24 h post-injection,0.21 ± 0.29 % ID/g
same,Biodistribution: Sm. intestine,SK-RC-52 xenografts; 24 h post-injection,0.47 ± 0.03 % ID/g
same,Biodistribution: Spleen,SK-RC-52 xenografts; 24 h post-injection,0.09 ± 0.01 % ID/g
same,Biodistribution: Stomach,SK-RC-52 xenografts; 24 h post-injection,0.65 ± 0.04 % ID/g
same,Biodistribution: Tumor,SK-RC-52 xenografts; 24 h post-injection,6.2 % ID/g and 6.23 ± 1.41 % ID/g
same,Tumor/Blood ratio,SK-RC-52 xenografts; 24 h post-injection,142.6 ± 115.8
same,Tumor/kid (kidney) ratio,SK-RC-52 xenografts; 24 h post-injection,7.1 and 7.1 ± 2.5
same,Tumor/mm (muscle) ratio,SK-RC-52 xenografts; 24 h post-injection,261.3 ± 47.3
same,tumor uptake on co-injection of 200 nmole of 1,SK-RC-52 xenografts; co-injection of 200 nmole of 1,blocked tumor uptake
same,radiotracer uptake within liver (in vivo stability of NOTA-64Cu chelation),SK-RC-52 xenografts; within 24 h,no significant radiotracer uptake within liver
same,PET/CT tumor imaging finding,[1],"radiotracer uptake in tumor as early as 1 h post-injection; also recorded: At 1 h, tumor could be observed distinctly"
